US7008954B1, “Th2 differentiation inhibitors” (Shionogi & Co., Ltd., priority 1999, dated 2006)

Key:
[1] = tested on: differentiation from Th0 cells to Th2 cells; assay: Inhibitory effect on induction of differentiation from Th0 cells to Th2 cells (DNP-As immunized mice, popliteal lymph node, intracellular cytokine FACS); format: in vivo, BALB/c mice; details: for increase in the % Th2 / increase in the Th2/Th1 ratio: BALB/c mice immunized with DNP-As; for % Th1 / % Th2 / Th2/Th1: BALB/c mice immunized with DNP-As/Alum, popliteal lymph node 6 days after immunization, n = 3
Protocol: Experiment 1 Inhibitory Effect on Induction of Differentiation from Th0 Cells to Th2 Cells
In an experiment to induce the differentiation from Th0 cells to Th2 cells, 9 to 11 week-old female mice of BALB/cCrSlc purchased from Japan SLC, Inc. or of BALB/cAnNCrj purchased from Charles River Japan, Inc. were used.
In an experiment to induce the differentiation from Th0 cells to Th2 cells, a DNP-As (dinitrophenylated Ascaris protein (porcine ascarid extract protein)) was used as an antigen, 10 μg of which and 250 μg of Alum (aluminum hydroxide adjuvant) in physiological saline in the final volume of 50 μl was injected into the soles of the both hind legs of each mouse, whereby effecting immunization. In a negative control group, each animal was treated similarly by an injection of 50 μl of physiological saline. 6 Days after injection, two popliteal lymph nodes were removed from right and left knees, and passed through a metal mesh (200 mesh size) in Hanks' balanced salt solution (HBSS) to prepare a cell suspension. In the group treated with physiological saline, preparations from two animals were combined and subjected to the experiment because of a small cell number. A compound according to the invention was suspended in 0.5% methylcellulose (MC) and 0.1 ml per 20 g mouse was given orally every day over a period from the day of immunization through the 5th day. The immunized vehicle control group and the negative control group were treated with the same volume of 0.5% MC.
Cells prepared from popliteal lymph nodes of these mice were suspended at 1−2×10^6 cells/ml (1–2 ml) in an RPMI 1640 medium (containing 10% fetal bovine serum—FBS and 50 μM 2-mercaptoethanol) and supplemented with PMA (Phorbol 12-Myristate 13-Acetate) at the final concentration of 50 ng/ml and 250 ng/ml A23187 (Ca ionophore) and then incubated at 37° C. in the presence of 5% CO2. After incubating for 4 hours, Brefeldin A was added at the final concentration of 10 μg/ml and the mixture was incubated further for 2 hours. The cells were recovered and washed twice with a staining buffer (PBS containing 1% FBS and 0.1% sodium azide) and suspended in 100 μl of the staining buffer containing 5 μg/ml of Fc Block (rat anti-mouse CD 16/CD32 purified monoclonal antibody, Pharmingen) and incubated on ice for 5 minutes to block the non-specific adsorption of the labeled antibody, and then combined with an equal volume of a Cy-Chrome-labelled rat anti-mouse CD4 monoclonal antibody (Pharmingen) which had been 200-fold diluted with the staining buffer and incubated on ice for 30 minutes. After washing three times with the staining buffer, the cells were suspended in PBS and combined with an equal volume of a fixation solution (4% p-formaldehyde) and incubated at 4° C. overnight, whereby effecting the fixation. The fixed cells thus obtained were washed twice with the staining buffer and suspended in a permeabilazation buffer (PBS containing 1% FBS, 0.5% saponin and 0.1% sodium azide) and incubated on ice for 10 minutes, and then each cell sample was recovered as being divided into two equal portions. Each portion was suspended in 100 μl of the permeabilazation buffer containing 5 μg/ml Fc Block and incubated on ice for 5 minutes to block the non-specific adsorption of the labeled antibody into the cells. One portion was combined with each 100 μl of an FITC-labelled rat anti-mouse IFNγ monoclonal antibody (Pharmingen) and a PE-labeled rat anti-mouse IL-4 monoclonal antibody (Pharmingen) each had been 50-fold diluted with the permeabilazation buffer and incubated on ice for 30 minutes. The other portion, serving as a control representing the non-specific adsorption of the labeled antibody, was combined with each 100 μl of each control antibody at the same concentration, i.e., an FITC-labelled rat IgG1κ purified antibody (Pharmingen) and a PE-labeled rat IgG1κ purified antibody (Pharmingen) to effect the similar staining. […]

[2] = tested on: differentiation from Th0 cells to Th1 cells; assay: Effect on induction of differentiation from Th0 cells to Th1 cells (mice immunized with non-viable Mycobacterium tuberculosis, popliteal lymph node, intracellular cytokine FACS); format: in vivo, C57BL/6 mice; details: for % Th1 / % Th2: C57BL/6N mice immunized with non-viable Mycobacterium tuberculosis, popliteal lymph node 6 days after immunization, n = 3; for effect on the increase in the % Th1: CD4 positive T cells, popliteal lymph node, C57BL/6 mice immunized with non-viable Mycobacterium tuberculosis
Protocol: In an experiment to induce the differentiation from Th0 cells to Th1 cells, 8 week-old female mice of C57BL/6NCrj purchased from Charles River Japan, Inc. were used.
On the other hand, in an experiment to induce the differentiation from Th0 cells to Th1 cells, a non-viable Mycobacterium tuberculosis H37RA (DIFCO) was suspended in physiological saline, and 125 μg/50 μl was used for immunization as described above. In the group treated with physiological saline, the preparations from 4 animals were combined and subjected to the experiment.
Cells prepared from popliteal lymph nodes of these mice were suspended at 1−2×10^6 cells/ml (1–2 ml) in an RPMI 1640 medium (containing 10% fetal bovine serum—FBS and 50 μM 2-mercaptoethanol) and supplemented with PMA (Phorbol 12-Myristate 13-Acetate) at the final concentration of 50 ng/ml and 250 ng/ml A23187 (Ca ionophore) and then incubated at 37° C. in the presence of 5% CO2. After incubating for 4 hours, Brefeldin A was added at the final concentration of 10 μg/ml and the mixture was incubated further for 2 hours. The cells were recovered and washed twice with a staining buffer (PBS containing 1% FBS and 0.1% sodium azide) and suspended in 100 μl of the staining buffer containing 5 μg/ml of Fc Block (rat anti-mouse CD 16/CD32 purified monoclonal antibody, Pharmingen) and incubated on ice for 5 minutes to block the non-specific adsorption of the labeled antibody, and then combined with an equal volume of a Cy-Chrome-labelled rat anti-mouse CD4 monoclonal antibody (Pharmingen) which had been 200-fold diluted with the staining buffer and incubated on ice for 30 minutes. After washing three times with the staining buffer, the cells were suspended in PBS and combined with an equal volume of a fixation solution (4% p-formaldehyde) and incubated at 4° C. overnight, whereby effecting the fixation. The fixed cells thus obtained were washed twice with the staining buffer and suspended in a permeabilazation buffer (PBS containing 1% FBS, 0.5% saponin and 0.1% sodium azide) and incubated on ice for 10 minutes, and then each cell sample was recovered as being divided into two equal portions. Each portion was suspended in 100 μl of the permeabilazation buffer containing 5 μg/ml Fc Block and incubated on ice for 5 minutes to block the non-specific adsorption of the labeled antibody into the cells. One portion was combined with each 100 μl of an FITC-labelled rat anti-mouse IFNγ monoclonal antibody (Pharmingen) and a PE-labeled rat anti-mouse IL-4 monoclonal antibody (Pharmingen) each had been 50-fold diluted with the permeabilazation buffer and incubated on ice for 30 minutes. The other portion, serving as a control representing the non-specific adsorption of the labeled antibody, was combined with each 100 μl of each control antibody at the same concentration, i.e., an FITC-labelled rat IgG1κ purified antibody (Pharmingen) and a PE-labeled rat IgG1κ purified antibody (Pharmingen) to effect the similar staining. After washing three times with the cell membrane permeation buffer and twice with the staining buffer, the cells were suspended in 500 μl of the staining buffer and transferred through a nylon mesh into a FACS analysis tube.
The significant difference was analyzed by Dunnett multiple comparison test and Student t test.

[3] = 2.5 mg/kg orally daily for 6 days
[4] = 10 mg/kg orally daily for 6 days
[5] = 40 mg/kg orally daily for 6 days
[6] = 40 mg/kg orally for consecutive 6 days after immunization, CD4 positive T cells, popliteal lymph node
[7] = 10 mg/kg orally for consecutive 6 days after immunization

CC(C)=CCNc1ccc(-c2cc(C)c(-c3ccc(OCC=C(C)C)nc3)cc2C)c(F)c1 [Compound I-6]
increase in the % Th2 ([1]; 10 mg/kg or higher): significantly inhibited | increase in the Th2/Th1 ratio ([1]; 10 mg/kg or higher): significantly inhibited | % Th1 [1, 3]: 0.70 ± 0.02% | % Th2 [1, 3]: 1.41 ± 0.10% | Th2/Th1 [1, 3]: 2.03 ± 0.20 | % Th1 [1, 4]: 0.54 ± 0.05% | % Th2 [1, 4]: 0.15 ± 0.01 % | Th2/Th1 [1, 4]: 0.29 ± 0.02 | % Th1 [1, 5]: 0.66 ± 0.02% | % Th2 [1, 5]: 0.03 ± 0.03 % | Th2/Th1 [1, 5]: 0.04 ± 0.05 | % Th1 ([2]; 40 mg/kg): 1.03 ± 0.10% | % Th2 ([2]; 40 mg/kg): 0.03 ± 0.02% | effect on the increase in the % Th1 [2]: no effect

CC(C)=CCNc1ccc(-c2cc(C)c(-c3cnc(OCC=C(C)C)nc3)cc2C)c(F)c1 [Compound I-55]
increase in the % Th2 [1, 6]: significantly inhibited | increase in the Th2/Th1 ratio [1, 6]: significantly inhibited | % Th1 [1, 5]: 0.53 ± 0.05% | % Th2 [1, 5]: 0.05 ± 0.02 % | Th2/Th1 [1, 5]: 0.09 ± 0.03

COc1c(C)c(-c2ccc(NCC=C(C)C)cc2)c(C)c(C)c1-c1ccc(OCC=C(C)C)c(F)c1 [Compound I-80]
increase in the % Th2 [1, 6]: significantly inhibited | increase in the Th2/Th1 ratio [1, 6]: significantly inhibited | % Th1 [1, 5]: 0.29 ± 0.03% | % Th2 [1, 5]: 0.07 ± 0.03 % | Th2/Th1 [1, 5]: 0.27 ± 0.12 | % Th1 ([2]; 40 mg/kg): 0.93 ± 0.11% | % Th2 ([2]; 40 mg/kg): 0.02 ± 0.04% | effect on the increase in the % Th1 [2]: no effect

COc1c(C)c(-c2ccc(OCC=C(C)C)c(F)c2)c(C)c(C)c1-c1ccc(NCC=C(C)C)cc1 [Compound I-89]
increase in the % Th2 [1, 7]: significantly inhibited | increase in the Th2/Th1 ratio [1, 7]: significantly inhibited | % Th1 [1, 4]: 0.23 ± 0.02% | % Th2 [1, 4]: −0.04 ± 0.00 % | Th2/Th1 [1, 4]: −0.19 ± 0.01 | % Th1 ([2]; 10 mg/kg): 0.70 ± 0.20% | % Th2 ([2]; 10 mg/kg): 0.02 ± 0.06% | effect on the increase in the % Th1 [2]: no effect

COc1c(C)c(-c2ccc(NCC=C(C)C)cc2)c(C)c(C)c1-c1ccc(OCC(F)(F)F)nc1 [Compound I-90]
increase in the % Th2 [1, 6]: significantly inhibited | increase in the Th2/Th1 ratio [1, 6]: significantly inhibited | % Th1 [1, 5]: 0.40 ± 0.02% | % Th2 [1, 5]: 0.08 ± 0.03 % | Th2/Th1 [1, 5]: 0.22 ± 0.09

COc1c(C)c(-c2ccc(NCC=C(C)C)c(F)c2)c(OC)c(C)c1-c1ccc(NCC=C(C)C)nc1 [Compound I-102]
increase in the % Th2 [1, 6]: significantly inhibited | increase in the Th2/Th1 ratio [1, 6]: significantly inhibited | % Th1 [1, 5]: 0.34 ± 0.09% | % Th2 [1, 5]: −0.01 ± 0.01 % | Th2/Th1 [1, 5]: −0.05 ± 0.06 | % Th1 ([2]; 40 mg/kg): 0.82 ± 0.16% | % Th2 ([2]; 40 mg/kg): 0.07 ± 0.04% | effect on the increase in the % Th1 [2]: no effect

CC(C)=CCNc1ccc(-c2cc(C)c(-c3cnc(OCC=C(C)C)nc3)cc2C)c(C)c1 [Compound I-132]
increase in the % Th2 [1, 6]: significantly inhibited | increase in the Th2/Th1 ratio [1, 6]: significantly inhibited | % Th1 [1, 5]: 0.46 ± 0.07% | % Th2 [1, 5]: 0.05 ± 0.02 % | Th2/Th1 [1, 5]: 0.12 ± 0.04

COc1c(C)c(-c2ccc(OCC(C)C)c(O)c2)c(C)c(C)c1-c1ccc(NCC=C(C)C)cc1 [Compound I-133]
increase in the % Th2 [1, 6]: significantly inhibited | increase in the Th2/Th1 ratio [1, 6]: significantly inhibited | % Th1 [1, 5]: 0.45 ± 0.03% | % Th2 [1, 5]: 0.20 ± 0.05 % | Th2/Th1 [1, 5]: 0.45 ± 0.09
